From patent US12268723B2, “Peptidomimetics for the treatment of coronavirus and picorna virus infections” (priority 2019, dated 2025) come the findings set out here.

Assay type in all cases: cell-based
Series [1] has as its system Enterovirus EV-71 (BrCr strain). As to the kind of experiment: Anti-enterovirus activity, EV-71 virus yield reduction (qRT-PCR) in RD cells. Particulars: 0.1 MOI, 2 days post-treatment. The protocol:
Compounds are tested for cytotoxicity using a MTS (3-(4,5-dimethylthiazol-2-yl)-5-(3-carboxymethoxyphenyl)-2-(4-sulfophenyl)-2H-tetrazolium) method and the CC50 (IC50) values (cytotoxic concentrations of drug required to reduce cell viability by 50%) are determined for each test compound in human rhabdomyosarcoma (RD) cell line. In addition, the maximum non-toxic concentrations (MNTC) are also determined for each compound. To avoid potential drug toxicity that would interfere with viral cytopathic effect (CPE), compounds are evaluated at nontoxic concentrations. The resultant inhibitory effect of each test compound is calculated as a percentage of decrease in EV-71 CPE. Briefly, a monolayer of RD cells is prepared in a 96-well plates. The cells are then infected with 1 MOI of EV-71 (BrCr strain) followed by treatment with a single non-toxic dose of each compound in triplicate. The vehicle control wells are treated with 0.1% DMSO diluted in the working media. The plate is then incubated for 48 h at which time the virus-control wells produced detectable CPE. To determine the probable CPE inhibitory effect of test compounds, an MTS assay is performed and effective compounds are chosen for further studies to identify the potency of the compounds and their concentration-dependent manner. The dose-response antiviral activity of each compound is determined by a virus yield reduction assay method. Briefly, confluent monolayers of RD cells in 96-wells microplate are infected with 0.1 MOI of EV-71 followed by treatment with compounds. Effective compounds are further quantified and confirmed with a virus-yield-reduction assay using an optimized in house qRT-PCR to determine the EV-71 RNA copy number after 2 days post-treatment from collected supernatants. qRT-PCR is performed using the EV-71 specific probe/primer mix and qScript-Tough master mix (Quantibio, USA). Quantitative PCR measurement was performed using StepOnePlus real time PCR system ([…]) according to manufacturer's protocol. The median effective concentration (EC50) and the concentration with 90% of inhibitory effect (EC90) are calculated using GraphPad PRISM for Windows, version 5 (GraphPad Software Inc., San Diego, CA, 2005) as the means±standard deviation (SD) of the mean from triplicate assay from three independent experiments.

In series [2] the test system is human rhabdomyosarcoma (RD) cell line. The series can be described thus: Cytotoxicity (MTS) in RD cells. The method, then: Compounds are tested for cytotoxicity using a MTS (3-(4,5-dimethylthiazol-2-yl)-5-(3-carboxymethoxyphenyl)-2-(4-sulfophenyl)-2H-tetrazolium) method and the CC50 (IC50) values (cytotoxic concentrations of drug required to reduce cell viability by 50%) are determined for each test compound in human rhabdomyosarcoma (RD) cell line. In addition, the maximum non-toxic concentrations (MNTC) are also determined for each compound. To avoid potential drug toxicity that would interfere with viral cytopathic effect (CPE), compounds are evaluated at nontoxic concentrations. The resultant inhibitory effect of each test compound is calculated as a percentage of decrease in EV-71 CPE. Briefly, a monolayer of RD cells is prepared in a 96-well plates. The cells are then infected with 1 MOI of EV-71 (BrCr strain) followed by treatment with a single non-toxic dose of each compound in triplicate. The vehicle control wells are treated with 0.1% DMSO diluted in the working media. […] The dose-response antiviral activity of each compound is determined by a virus yield reduction assay method. Briefly, confluent monolayers of RD cells in 96-wells microplate are infected with 0.1 MOI of EV-71 followed by treatment with compounds. […] Quantitative PCR measurement was performed using StepOnePlus real time PCR system ([…]) according to manufacturer's protocol.

A further series relates to HCoV (OC43). As to the kind of experiment: In vitro assay for HCoV (OC43), virus yield reduction in Huh7 cells. The note with it: for inhibition at 10 µM: Betacoronavirus 1, OC43, Huh-7, 10 μM. The source says: In order to determine the potential effect of each selected compound against in vitro replication of SARS-CoV-2 in Vero cells or HCoV (OC43) in Huh7 cells, a confluent cell monolayer in a 96-wells cell culture microplate can be infected at a multiplicity of infection (MOI) of 0.1 and treated with a maximum non-toxic concentration (MNTC) of each compound. To assess the antiviral activity, a virus yield reduction assay using specific qRT-PCR for each virus can be performed.
Dose-Dependent Antiviral Assay. The antiviral effect of each compound selected through the antiviral evaluation assay can be further confirmed by virus yield reduction assay using the optimized qRT-PCR by measuring the RNA copy number for each virus in the supernatant of treated-infected cells. A positive control, such as remdesivir, can be used for each assay.
Statistical analysis. The half-maximal effective concentration (EC50) and the concentration with 90% of inhibitory effect (EC90) can be calculated using GraphPad PRISM for Windows, version 5 (GraphPad Software Inc., San Diego, CA, 2005) or the Chou and Talalay Method.
These methods were used to evaluate certain of the compounds described herein.

Series [3] can be described thus: Cellular toxicity assay in Vero cells. Particulars: African green monkey, read-out: Cytotoxicity, CC50, VERO. The method, then: (§1) The toxicity of the compounds was assessed in Vero, human PBM, CEM (human lymphoblastoid), MT-2, and HepG2 cells, as described previously (see Schinazi R. F., Sommadossi J.-P., Saalmann V., Cannon D. L., Xie M.-Y., Hart G. C., Smith G. A. & Hahn E. F. Antimicrob. Agents Chemother. 1990, 34, 1061-67). Cycloheximide was included as positive cytotoxic control, and untreated cells exposed to solvent were included as negative controls. The cytotoxicity CC50 was obtained from the concentration-response curve using the median effective method described previously (see Chou T.-C. & Talalay P. Adv. Enzyme Regul. 1984, 22, 27-55; Belen'kii M. S. & Schinazi R. F. Antiviral Res. 1994, 25, 1-11).

Another series relates to SARS-CoV-2. As to the kind of experiment: microbe, parasite or virus in culture. The note with it: for inhibition at 10 µM: read-out: SARS-CoV-2 Inhibition at 10 μM (%).
The nature of series [4]: Cellular toxicity assay in Huh7 cells. Particulars: human, read-out: Cytotoxicity, CC50, Huh7.
The nature of series [5]: Cellular toxicity assay in CEM cells. Particulars: human, CEM lymphoblastoid cells, read-out: Cytotoxicity, CC50, CEM. The protocol: as §1
The mark [6] stands for this setting: Severe acute respiratory syndrome coronavirus 2, 10 μM, Vero cells.
The mark [7] stands for this setting: Severe acute respiratory syndrome coronavirus 2, Vero.

Molecules are shown by their SMILES. Where two headings read alike, the source gives them in different places.

For the molecule `Cc1cc(C(=O)N[C@@H](Cc2cccc3ccccc23)C(=O)N[C@@H](CC(C)C)C(=O)NC(C=O)C[C@@H]2CCCNC2=O)no1` (some centres unmarked), the EC50 in series [1] (read-out: EC50 against Enterovirus EV-71 (BrCr strain)) is 8.5 nM. The EC90 in series [1] (read-out: EC90 against Enterovirus EV-71 (BrCr strain)) turned out to be 21.4 nM. The molecule also yielded a 50% cytotoxic concentration (CC50) in series [2] of more than 100 µM.

As to `CC(C)C[C@H](NC(=O)[C@H](Cc1ccc(F)cc1)NC(=O)OCc1ccccc1)C(=O)N[C@H](C=O)C[C@@H]1CCCNC1=O` [Compound 35, Benzyl ((S)-3-(4-fluorophenyl)-1-(((S)-4-methyl-1-oxo-1-(((S)-1-oxo-3-((S)-2-oxopiperidin-3-yl)propan-2-yl)amino)pentan-2-yl)amino)-1-oxopropan-2-yl)carbamate], the values for the inhibition at 10 µM in the series with HCoV (OC43) and with SARS-CoV-2 (setting [6]) were 99.9% and 99.8%, respectively. In addition, the figures for the CC50 in series [3] and in series [4] were more than 100 µM and 60 µM, respectively.

Consider `CC(C)C[C@H](NC(=O)[C@H](Cc1cccc2ccccc12)NC(=O)OCc1ccccc1)C(=O)N[C@@H](C[C@@H]1CCCNC1=O)C(O)S(=O)(=O)O` (stereo partly drawn) [Compound 37, Sodium (5S,8S, 11S)-12-hydroxy-8-isobutyl-5-(naphthalen-1-ylmethyl)-3,6,9-trioxo-11-(((S)-2-oxopiperidin-3-yl)methyl)-1-phenyl-2-oxa-4,7,10-triazadodecane-12-sulfonate], for which the inhibition at 10 µM with HCoV (OC43) and in the series with SARS-CoV-2 (setting [7]) was 99.9% each time. Moreover, in the series with SARS-CoV-2 (Severe acute respiratory syndrome coronavirus 2, Vero cells, unit inferred, read-out: Activity against SARS-CoV-2 EC50), the EC50 came out at 300 nM. In addition, the EC90 in the series on SARS-CoV-2 (Severe acute respiratory syndrome coronavirus 2, Vero cells, unit inferred, read-out: Activity against SARS-CoV-2 EC90) came out at 4.5 µM.

`CC(C)C[C@H](NC(=O)[C@H](Cc1cccc2ccccc12)NC(=O)OCc1ccccc1)C(=O)N[C@@H](C[C@@H]1CCCNC1=O)C(O)C(F)(F)F` (stereo partly drawn) [Compound 38, Benzyl ((2S)-1-(((2S)-4-methyl-1-oxo-1-(((2S)-4,4,4-trifluoro-3-hydroxy-1-((S)-2-oxopiperidin-3-yl)butan-2-yl)amino)pentan-2-yl)amino)-3-(naphthalen-1-yl)-1-oxopropan-2-yl)carbamate]: the inhibition at 10 µM in the series on HCoV (OC43) was determined as 95%; with SARS-CoV-2 (setting [6]), 85.1%. Moreover, the CC50 in series [5] amounted to 6 µM.

Consider `CC(C)C[C@H](NC(=O)[C@H](Cc1cccc2ccccc12)NC(=O)OCc1ccccc1)C(=O)N[C@@H](C[C@@H]1CCCNC1=O)C(=O)C(F)(F)F` [Compound 39, Benzyl ((S)-1-(((S)-4-methyl-1-oxo-1-(((S)-4,4,4-trifluoro-3-oxo-1-((S)-2-oxopiperidin-3-yl)butan-2-yl)amino)pentan-2-yl)amino)-3-(naphthalen-1-yl)-1-oxopropan-2-yl)carbamate], for which the results for the inhibition at 10 µM in the series on HCoV (OC43) and with SARS-CoV-2 (setting [6]) were 99.4% and 68%, respectively.

With `Cc1cc(C(=O)NC(CC(C)C)C(=O)N[C@H](C=O)C[C@@H]2CCCNC2=O)no1` (some centres unmarked) [Compound 43], the inhibition at 10 µM in the series with HCoV (OC43) and in the series on SARS-CoV-2 (setting [7]) was 99.9% in each case.

For the molecule `CCOC(=O)/C=C/[C@H](C[C@@H]1CCCNC1=O)NC(=O)C(CC(C)C)NC(=O)[C@H](Cc1cccc2ccccc12)NC(=O)c1cc(C)on1` (some centres unmarked) [Compound 44], the figures for the inhibition at 10 µM in the series on HCoV (OC43) and in the series with SARS-CoV-2 (setting [7]) were 99.7% and 99.5%, respectively.

For the molecule `CC(C)C[C@H](NC(=O)[C@H](Cc1cccc2ccccc12)NC(=O)OCc1ccccc1)C(=O)N[C@@H](C[C@@H]1CCCNC1=O)[C@@H](O)C#N` [Compound 128, Benzyl ((S)-1-(((S)-1-(((1R,2S)-1-cyano-1-hydroxy-3-((S)-2-oxopiperidin-3-yl)propan-2-yl)amino)-4-methyl-1-oxopentan-2-yl)amino)-3-(naphthalen-1-yl)-1-oxopropan-2-yl)carbamate], the inhibition at 10 µM came out at 100% in the series on HCoV (OC43) and 99.9% in the series with SARS-CoV-2 (setting [7]).

In the case of `CC(C)C[C@H](NC(=O)[C@H](Cc1cccc2ccccc12)NC(=O)OCc1ccccc1)C(=O)N[C@@H](C[C@@H]1CCCNC1=O)[C@H](O)C#N` [Compound 129, benzyl ((S)-1-(((S)-1-(((1S,2S)-1-cyano-1-hydroxy-3-((S)-2-oxopiperidin-3-yl)propan-2-yl)amino)-4-methyl-1-oxopentan-2-yl)amino)-3-(naphthalen-1-yl)-1-oxopropan-2-yl)carbamate], the “OC43 Inhibition at 10 μM (%)” value with HCoV (OC43) (10 μM) turned out to be 99.9%. The “SARS-CoV-2 Inhibition at 10 μM (%)” value in the series on SARS-CoV-2 (10 μM, Vero cells) is listed as 99.9%.

Turning to `CC(C)CC(NC(=O)[C@H](Cc1cccc2ccccc12)NC(=O)OCc1ccccc1)C(=O)N[C@@H](C[C@@H]1CCNC1=O)C1OCCO1` (some centres unmarked) [Compound 136], the figures for the inhibition at 10 µM in the series with HCoV (OC43) and in the series on SARS-CoV-2 (setting [7]) were 99.3% and 99.8%, respectively.
